Laboratory results as given in patent publication US11091490B2, “3-amino-1,5-dihydro-pyrazolo[3,4-d]pyrimidin-4-ones as cyclin dependent kinase inhibitors” (Oncotyrol Center for Personalized Cancer Medicine GMBH, priority 2016, dated 2021).
Values after ≈ are worked out from the molar mass of the structure shown. Read-outs that look alike come from different tables or passages of the source.

How the values were obtained:
[1] = Solubility in water; assay type: physicochemical
From the text: The water solubility of preferred compound 86 and the compound of Example 49 of WO 02/967654 A2 have been compared.

[2] = target: T1, CDK7 (Homo sapiens, UniProt P50613); test: Target selectivity profile (DiscoverX KinomeScan) CDK7; assay type: binding
T1 construct: purchased DiscoverX
From the text: (§1) 3. Target Selectivity Profile (DiscoverX KinomeScan)
(§2) According to an analysis of kinase inhibitory selectivity carried out in accordance with Karaman M W et al., Nat Biotechnol. 2008 January; 26(1):127-32. doi: 10.1038/nbt1358.

[3] = target: T2, CDK16 (Homo sapiens, UniProt Q00536); test: Target selectivity profile (DiscoverX KinomeScan) CDK16; assay type: binding
T2 construct: purchased DiscoverX
From the text: as §1, §2

[4] = target: human ether-a-go-go-related gene (hERG)-encoded K+ channel (Homo sapiens, UniProt Q12809); test: Medium-throughput electrophysiology based hERG assay; assay type: cell-based
From the text: In a medium-throughput electrophysiology based hERG assay carried out in accordance with Bridgland-Taylor M H et al., J Pharmacol Toxicol Methods. 2006 September-October; 54(2):189-99. Epub 2006 Mar. 6.

[5] = test system: most CYP enzymes; test: Drug-drug interactions: CYP inhibition; assay type: in vitro ADME
From the text: In assays carried out in accordance with the “Guideline on the investigation of drug interactions”, CPMP/EWP/560/95/Rev. 1 Corr. 2, European Medicines Agency, Committee for Human Medicinal Products (CHMP) and “Guidance for Industry, Drug Interaction Studies—Study Design, Data Analysis, Implications for Dosing, and Labeling Recommendations”, U.S. Department of Health and Human Services.

[6] = test system: BXPC3 (pancreas); test: In vitro proliferation screening (Sulforhodamin B) BXPC3; assay type: cell-based, human; settings: BXPC3, 72 h
From the text: (§3) In order to evaluate the antitumor activity of the compounds of the present invention, in particular compound 86, in solid tumors, an in vitro proliferation screening in a panel of 10 different human cancer cell lines derived from solid tumors (see Table 5, below) as a model system.
(§4) Six 10-fold dilutions of compound 86 have been prepared in DMSO, from 5×10^−9 M to 5×10^−4. Single data points have been tested for each concentration. The final concentration of DMSO was 0.1%. The duration of the treatment was 72 hours. The growth inhibition was measured by using Sulforhodamin B, a protein-staining assay in accordance with Vichai V et. al. Nat. Protoc. 2006; 1(3):1112-6. Activity of the agents was determined by evaluating the following parameters: IC50, GI50, IC10, GI10, TGI, LC50, IC90 and GI90 (if these values could be calculated).

[7] = test system: COLO205 (colon); test: In vitro proliferation screening (Sulforhodamin B) COLO205; assay type: cell-based, human; settings: COLO205, 72 h, unit M
From the text: as §3, §4

[8] = test system: DU145 (prostate); test: In vitro proliferation screening (Sulforhodamin B) DU145; assay type: cell-based; settings: Homo sapiens, DU-145; DU145, 72 h; unit M
From the text: as §3, §4

[9] = test system: NCIH82 (lung); test: In vitro proliferation screening (Sulforhodamin B) NCIH82; assay type: cell-based; settings: Homo sapiens, NCI-H82; NCIH82, 72 h; unit M
From the text: as §3, §4

[10] = test system: U2OS (bone); test: In vitro proliferation screening (Sulforhodamin B) U2OS; assay type: cell-based, human; settings: 72 h
From the text: as §3, §4

[11] = test system: UO31 (kidney); test: In vitro proliferation screening (Sulforhodamin B) UO31; assay type: cell-based, human; settings: UO31, 72 h
From the text: as §3, §4

[12] = test system: LP-1 multiple myeloma cells; test: Cell cycle analysis (propidium iodide FACS) LP1; assay type: cell-based
From the text: (§5) In order to investigate the mode of action (MOA) related to the antitumor activity of the compounds of the present invention (in particular compound 86) in solid tumors and multiple myeloma, two experimental strategies were used to confirm the postulated MOA: 1) monitoring of apoptosis induction and 2) cell cycle analysis upon treatment with compound 86. Three cancer cell lines (LP-1, (multiple myeloma cells, DSMZ ACC 41), A375 (melanoma cells), and HeLa (cervix carcinoma cells)) as well as control cells (HS-5 bone marrow stroma cells, ATCC CRL-11882) were used to obtain mechanistic insight into the antitumor activity of compound 86.
Measuring of DNA content in cells is a well-established method for monitoring cell proliferation, cell cycle, fragmentation of nuclei (apoptosis) and DNA ploidy. Proliferating cells progress through various phases of the cell cycle (G0, G1, S, G2, and M phase). At different stages of the cell cycle and life cycle, cell nuclei contain different amounts of DNA. The DNA content in cell nuclei was analyzed by propidium iodide (PI) staining and FACS analysis after 12 and 24 h of treatment with 100 nM of compound 86 in accordance with the method of Desai Brijal M. et. al. PLOS Vol. 8; Issue 3; p. 1-11, 2013.

[13] = test system: LP-1 multiple myeloma cells; test: PARP cleavage Western blot LP1; assay type: cell-based; settings: LP1, 24 h, 100 nM, FIG. 1B legend 0.08 μM
From the text: as §5
(§6) Annexin V staining and Poly(ADP-ribose)-Polymerase 1 (PARP) protein cleavage was analyzed to identify a pro-apoptotic effect of compound 86 on tumor cells in accordance with the method of Koopman G, et. al. Blood 1994; 1; 84(5):1415-20. Annexin V allows the identification of cell surface changes that occur early during the apoptotic process by in situ detection, which is ideal for the analysis with adherent cells. Cleavage of PARP-1 by caspases is considered to be a hallmark of apoptosis and was therefore applied to monitor apoptosis induction after 24 h of treatment with 100 nM of compound 86.

[14] = test system: HeLa cervix carcinoma cells; test: PARP cleavage Western blot HeLa; assay type: cell-based; settings: 24 h, 100 nM, FIG. 1B legend 0.08 μM
From the text: as §5, §6

[15] = test system: HS-5 bone marrow stroma cells (control); test: Annexin V/PI staining HS-5; assay type: cell-based; settings: HS-5 control cells, 0.1 μM, 12 h and 24 h
From the text: as §5, §6

T1 sequence (P50613 whole entry): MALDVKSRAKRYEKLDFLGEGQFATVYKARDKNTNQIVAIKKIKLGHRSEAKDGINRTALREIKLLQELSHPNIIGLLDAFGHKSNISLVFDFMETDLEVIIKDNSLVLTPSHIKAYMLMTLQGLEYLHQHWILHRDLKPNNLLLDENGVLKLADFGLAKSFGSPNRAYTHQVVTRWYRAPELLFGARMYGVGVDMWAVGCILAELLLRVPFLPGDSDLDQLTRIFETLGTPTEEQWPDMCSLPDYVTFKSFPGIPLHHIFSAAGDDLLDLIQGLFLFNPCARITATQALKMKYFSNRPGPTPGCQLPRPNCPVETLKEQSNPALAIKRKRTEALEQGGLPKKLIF
T2 sequence (Q00536 whole entry): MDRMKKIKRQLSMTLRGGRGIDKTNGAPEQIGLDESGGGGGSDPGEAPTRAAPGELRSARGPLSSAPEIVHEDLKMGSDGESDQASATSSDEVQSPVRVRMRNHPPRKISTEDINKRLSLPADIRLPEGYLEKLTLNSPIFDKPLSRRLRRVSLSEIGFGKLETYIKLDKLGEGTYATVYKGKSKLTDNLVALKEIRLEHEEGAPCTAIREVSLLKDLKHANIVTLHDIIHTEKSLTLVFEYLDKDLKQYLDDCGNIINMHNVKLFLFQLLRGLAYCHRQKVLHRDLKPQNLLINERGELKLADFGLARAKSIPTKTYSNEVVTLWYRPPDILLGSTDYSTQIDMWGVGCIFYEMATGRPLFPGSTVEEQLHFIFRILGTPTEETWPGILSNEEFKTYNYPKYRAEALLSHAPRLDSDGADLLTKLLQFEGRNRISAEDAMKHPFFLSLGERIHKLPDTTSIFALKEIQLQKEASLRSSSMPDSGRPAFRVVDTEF
human ether-a-go-go-related gene (hERG)-encoded K+ channel, sequence (Q12809 whole entry): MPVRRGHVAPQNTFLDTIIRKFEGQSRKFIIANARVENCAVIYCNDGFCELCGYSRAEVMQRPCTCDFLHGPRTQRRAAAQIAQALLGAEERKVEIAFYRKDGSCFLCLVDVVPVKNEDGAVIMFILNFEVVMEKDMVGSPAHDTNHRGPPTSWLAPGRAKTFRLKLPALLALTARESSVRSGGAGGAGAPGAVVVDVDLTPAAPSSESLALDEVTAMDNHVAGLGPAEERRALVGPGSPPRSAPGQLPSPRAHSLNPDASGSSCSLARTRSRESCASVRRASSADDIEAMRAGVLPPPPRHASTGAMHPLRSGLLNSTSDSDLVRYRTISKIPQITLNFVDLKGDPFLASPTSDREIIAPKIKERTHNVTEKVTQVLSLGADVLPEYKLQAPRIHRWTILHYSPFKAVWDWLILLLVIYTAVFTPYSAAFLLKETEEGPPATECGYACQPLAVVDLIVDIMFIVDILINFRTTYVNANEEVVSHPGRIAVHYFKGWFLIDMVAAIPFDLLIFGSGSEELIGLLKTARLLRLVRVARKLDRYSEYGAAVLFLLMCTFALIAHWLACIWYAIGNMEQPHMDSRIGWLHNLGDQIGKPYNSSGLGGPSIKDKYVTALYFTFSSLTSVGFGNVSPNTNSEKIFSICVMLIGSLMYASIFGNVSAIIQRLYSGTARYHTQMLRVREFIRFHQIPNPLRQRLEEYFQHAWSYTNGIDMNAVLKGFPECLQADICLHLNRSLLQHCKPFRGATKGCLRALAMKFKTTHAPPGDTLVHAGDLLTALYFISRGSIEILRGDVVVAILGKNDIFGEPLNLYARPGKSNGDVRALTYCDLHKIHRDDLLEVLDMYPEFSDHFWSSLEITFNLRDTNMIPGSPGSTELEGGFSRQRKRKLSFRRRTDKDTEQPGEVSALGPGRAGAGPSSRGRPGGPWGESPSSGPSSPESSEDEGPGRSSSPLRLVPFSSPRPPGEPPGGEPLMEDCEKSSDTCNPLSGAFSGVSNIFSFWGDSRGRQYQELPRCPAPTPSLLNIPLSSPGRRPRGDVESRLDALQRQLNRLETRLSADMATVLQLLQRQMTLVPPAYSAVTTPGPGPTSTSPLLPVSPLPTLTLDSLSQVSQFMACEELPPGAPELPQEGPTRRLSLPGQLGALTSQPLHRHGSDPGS

- solubility ([1]; aqueous buffer, pH 2.0, read-out: Solubility in water at pH 2.0): 129 µM (≈ 80.2 µg/mL)
- solubility ([1]; pH 7.4, aqueous buffer, read-out: Solubility in water at pH 7.4): 105 µM (≈ 65.3 µg/mL)
- kinase inhibitory selectivity: CDK7 [2]: active as inhibitors
- kinase inhibitory selectivity: CDK16 [3]: active as inhibitors
- inhibitory activity of most CYP enzymes [5]: only weak inhibitory activity
- GI50 ([6]; Homo sapiens, BXPC-3, unit M): 36.3 nM
- IC50 ([6]; Homo sapiens, BXPC-3, unit M): 41.8 nM
- GI50 [7]: 20.9 nM
- GI50 ([7]; Homo sapiens, COLO 205, 72 h): 21 nM
- IC50 ([7]; Homo sapiens, COLO 205): 24.2 nM
- GI50 [8]: 32.4 nM
- IC50 [8]: 37.3 nM
- GI50 ([10]; Homo sapiens, unit M): 94.2 nM
- IC50 ([10]; Homo sapiens, unit M): 103 nM
SMILES: CCN(CC)CC(=O)Nc1ccc(Cc2nc3c(c(N(C)C)nn3-c3c(Cl)cc(S(N)(=O)=O)cc3Cl)c(=O)[nH]2)cc1 [Compound 86, N-{4-[1-(2,6-Dichloro-4-sulfamoyl-phenyl)-3-dimethylamino-4-oxo-4,5-dihydro-1H-pyrazolo[3,4-d]pyrimidin-6-ylmethyl]-phenyl}-2-diethylamino-acetamide]
- inhibitory activity on hERG K+ channel [4]: did not display any inhibitory activity
- growth inhibitory response in words [6]: growth inhibition in the middle nanomolar range
- GI50 [9]: 16.5 nM
- IC50 [9]: 21.3 nM
- growth inhibitory response in words [10]: responded rather weakly in the micromolar range
- GI50 ([11]; Homo sapiens, UO-31, unit M): 339 nM
- IC50 ([11]; Homo sapiens, UO-31, unit M): 360 nM
- growth inhibitory response in words [11]: responded rather weakly in the micromolar range
- cell cycle profile (DNA content) ([12]; LP1, 0.1 μM, 12 and 24 h (FIG. 1A)): cell cycle defects and a progressive enrichment of the sub G1 group
- cell cycle profile (DNA content) ([12]; LP1, 100 nM, 12 h): strong enrichment of nuclei in the sub_G1 fraction
- cell cycle profile (DNA content) ([12]; LP1, 100 nM, 24 h): almost all intact nuclei of LP1 cells disappeared
- PARP cleavage [13]: specific induction of PARP cleavage
- PARP cleavage ([13]; listed as Otviciclib): induction of PARP cleavage
- PARP cleavage [14]: specific induction of PARP cleavage
- PARP cleavage ([14]; listed as Otviciclib): induction of PARP cleavage
- induction of apoptosis (Annexin V/PI staining) [15]: did not respond
